“Also recorded” adds a separate entry of the source.
Assays:
[1] = system: mouse embryonic fibroblasts (MEFs); assay: Ceramide-induced (C16:0 CER, C2-ceramide) mitochondrial fragmentation; assay type: cell-based; conditions: MEFs; C16:0 CER 100 μM or C2-ceramide 50 μM 3 h; 893 5 μM, mdivi-1 50 μM, M1 5 μM, leflunomide 50 μM, P110 1 μM
Experimental: (§1) 3T3-L1 cells were maintained in DMEM with 10% FBS and 1% penicillin-streptomycin until induced to differentiate. 3T3-L1 pre-adipocytes were differentiated as described in (M. P. Valley, et al., Anal. Biochem. 505: 43-50, 2016, the disclosure of which is incorporated herein by reference) with slight modifications. Briefly, pre-adipocytes were grown to confluence. After 2 d, cells were induced with maintenance media containing 500 μM IBMX (15879, Sigma-Aldrich, St. Louis, Mo.), 1 μM dexamethasone (D4902, Sigma-Aldrich), 5 μg/mL bovine insulin (10516, Sigma-Aldrich), and 5 μM troglitazone (50-115-0786, ApexBio). Media was changed every 2-3 d for 7 d. On day 7 post-induction, media was changed to maintenance media+5 μg/mL bovine insulin. On day 9 post-induction, media was changed to maintenance media. Mature adipocytes were used 12-14 d post-induction for all experiments. LSL-KrasG12D mouse embryonic fibroblasts (MEFs) with and without Cre-mediated deletion of the STOP cassette were obtained from David Tuveson (Cold Spring Harbor Laboratory, Cold Spring Harbor N.Y., USA) in 2000. p53^flox/flox MEFs were derived in house (2015) from C57BL/6 mice using standard techniques and immortalized by transient expression of Cre recombinase and deletion of p53. MEFs were cultured and maintained in DMEM with 10% FBS and 1% penicillin-streptomycin. A549 cells were cultured in DMEM with 10% FBS, 1% penicillin-streptomycin and 1% sodium pyruvate. Stock solution of palmitic acid (ACROS Organics, cat # AC129702500) was prepared at 100 mM in ethanol. Palmitate (250 μM) was conjugated to 1% (w/v) fatty-acid free bovine serum albumin (Sigma, A8806) in DMEM at 37° C. for 20 min. For all immunofluorescence assays, 8,000 MEFs were seeded into 8-chamber slides (Cellvis, cat # C8-1.5H-N) 12-16 h before treatment. Cells were pre-treated with sphingolipid-like compound 893 (5 μM in water), myriocin (10 μM in methanol), fumonisin-B1 (30 μM in DMSO), or celastrol (500 nM in DMSO) for 3 h followed by a 3 h treatment with BSA-conjugated palmitate mixture or BSA alone. Where cells were treated with C2-ceramide (50 μM in DMSO) or C16:0 ceramide (100 μM in ethanol) for 3 h, cells were pre-treated with sphingolipid-like compound 893 for 1-3 h as indicated, mdivi-1 (50 μM in DMSO) for 1 h or 24 h, M1 (5 μM in DMSO) for 24 h, mdivi-1 and M1 together for 24 h, leflunomide (50 μM in methanol) for 1 h or 24 h, or with P110 (1 μM in water) for 1 h or 12 h. LSL or KRAS^G12D MEFs were treated with sphingolipid-like compound 893 (5 μM) for 6 h prior to fixation.
MEFs were washed twice with PBS and fixed with 4% paraformaldehyde for 10 min at RT. Cells were permeabilized with 0.3% Triton X-100 in blocking buffer containing 10% fetal bovine serum for 20 min at 37° C. followed by overnight incubation with mouse anti-citrate synthase (sc-390693, Santa Cruz Biotechnology; dilution, 1:200) or rabbit-anti-DRP1 at 1:100 (#8570, Cell Signaling Technology) at 4° C. Cells were then washed twice with PBS and incubated with AlexaFluor 488 goat anti-mouse (A28175, Invitrogen) or AlexaFluor 594 donkey anti-rabbit (A32754, Invitrogen) secondary antibodies at RT followed by 5 min incubation with 1 μg/ml DAPI and 2 washes in PBS. For NADH autofluorescence studies, mice were gavaged with vehicle or 120 mg/kg sphingolipid-like compound 893 at ZT8.5 (4-10.5 h before sacrifice between ZT12.5 and ZT18). Post sacrifice, livers were excised, washed 3× with PBS, placed in DMEM supplemented with 10% FBS and 1% penicillin-streptomycin, and immediately imaged. NADH/NADPH autofluorescence was detected with 740 nm excitation and 450±50 nm detectors using a Mai Tai two-photon laser. Fluorescence microscopy was performed on a Zeiss LSM 780 confocal using a 63× oil objective with a […] numerical aperture (NA) or using a Nikon TE2000-S inverted epifluorescence microscope with a 100× oil objective (1.3 NA) and a Photometrics CoolSNAP ES2 monochrome CCD camera. […]

[2] = system: mouse embryonic fibroblasts (MEFs); assay type: cell-based; conditions: 3 h pre-treatment then palmitate 250 μM 3 h, 893 5 μM, myriocin 10 μM, fumonisin B1 30 μM, NAV-2729 12.5 μM, YM201636 800 nM, celastrol 500 nM
Experimental: Mitochondrial morphology was assessed by examining citrate synthesis expression under a high resolution microscopy. Specifically, the aspect ratio, branch length and roundness of mitochondria was assessed (FIG. 1).
LSL-KrasG12D mouse embryonic fibroblasts (MEFs) with and without Cre-mediated deletion of the STOP cassette were obtained from David Tuveson (Cold Spring Harbor Laboratory, Cold Spring Harbor N.Y., USA) in 2000. p53^flox/flox MEFs were derived in house (2015) from C57BL/6 mice using standard techniques and immortalized by transient expression of Cre recombinase and deletion of p53. MEFs were cultured and maintained in DMEM with 10% FBS and 1% penicillin-streptomycin. […] Stock solution of palmitic acid (ACROS Organics, cat # AC129702500) was prepared at 100 mM in ethanol. Palmitate (250 μM) was conjugated to 1% (w/v) fatty-acid free bovine serum albumin (Sigma, A8806) in DMEM at 37° C. for 20 min. For all immunofluorescence assays, 8,000 MEFs were seeded into 8-chamber slides (Cellvis, cat # C8-1.5H-N) 12-16 h before treatment. Cells were pre-treated with sphingolipid-like compound 893 (5 μM in water), myriocin (10 μM in methanol), fumonisin-B1 (30 μM in DMSO), or celastrol (500 nM in DMSO) for 3 h followed by a 3 h treatment with BSA-conjugated palmitate mixture or BSA alone.

[3] = system: C16:0 ceramide generation (CerS6); assay: C16:0 ceramide levels in palmitate-treated MEFs (UPLC-MS/MS); assay type: cell-based, mouse; conditions: MEFs; 3 h pre-treatment (893 5 μM, myriocin 10 μM, fumonisin B1 30 μM) then palmitate 250 μM 3 h
Experimental: Plasma pharmacokinetic analysis of sphingolipid-like compound 893 was performed by Pharmaron Corporation (Beijing, China). C16:0 ceramide levels were quantified in cells using the method described in (T. Kasumov, et al., Anal. Biochem. 401: 154-161, 2010, the disclosure of which is incorporated herein by reference) with minor modifications. Cultured cells were washed twice in PBS and scraped into 250 μL of HPLC grade water and flash frozen until time of analysis. On the day of analysis, samples were thawed, and an aliquot used for protein quantification. For C16:0 ceramide levels in mouse liver, 25 mg of tissue was homogenized in 1 ml of ice-cold PBS using a mechanical probe homogenizer (VWR, Radnor, Pa.), protein levels quantified, and 50 μl of the homogenate diluted with 150 μl HPLC-grade water for C16:0 ceramide analysis. Fifty ng of C17:0 ceramide prepared in ethanol (#22532, Cayman Chemical, Ann Arbor, Mich.) was added into 200 μL of the thawed cell suspension or liver homogenate as an internal standard to control for varying extraction efficiency; 750 μL of an ice-cold 1:2 chloroform/methanol mixture was then added. Samples were sonicated for 30 min and phase separation induced by the addition of 250 μL each of chloroform and HPLC-grade water. Samples were centrifuged at 4° C. for 10 min and the lower lipid phase transferred to a clean tube. The remaining protein and aqueous layers were re-extracted with an additional 500 μL of chloroform. Lipid phases were combined and then dried under vacuum. Dried extract was re-constituted in 100% acetonitrile immediately before analysis. Samples were analyzed by ultra-performance liquid chromatography tandem mass spectrometry (UPLC-MS/MS) using a Waters Micromass Quattro Premier XE equipped with a Waters ACQUITY BEH C4 column (Waters Corp.). Samples were resolved starting at 60% mobile phase A (10 mM ammonium acetate and 0.05% formic acid in water) to 98% mobile phase B (60:40 acetonitrile:isopropanol) over 3 min with a linear gradient, held at 98% B for 1 min, then the column was equilibrated with 60% A for 1 min. The mass spectrometer was operated in positive ion mode with the following parameters: cone voltage 20 V, source temperature 125° C., desolvation temperature 400° C. Ion transition channels for MS/MS were 538→264 for C16:0 ceramide and 552→264 for C17:0 ceramide, both with a dwell time of 285 ms. Standard curves prepared from C16:0 ceramide (#860516, Avanti Polar Lipids, Alabaster, Ala.) dissolved in ethanol were used for quantitation and were linear from 4.1 nM-1,000 nM, with an R^2 of 0.98 or greater.
3T3-L1 cells were maintained in DMEM with 10% FBS and 1% penicillin-streptomycin until induced to differentiate. […]

A549 lung cancer cells = assay: KRAS-mediated mitochondrial fission in A549 cells; assay type: cell-based, human; conditions: A549, oncogenic KRAS; 893 5 μM 1 h, leflunomide 50 μM 24 h
Experimental: as §1, with “Where cells were treated with C2-ceramide (50 μM in DMSO) or C16:0 ceramide (100 μM in ethanol) for 3 h, cells were pre-treated with sphingolipid-like compound 893 for 1-3 h as indicated, mdivi-1 (50 μM in DMSO) for 1 h or 24 h, M1 (5 μM in DMSO) for 24 h, mdivi-1 and M1 together for 24 h, leflunomide (50 μM in methanol) for 1 h or 24 h, or with P110 (1 μM in water) for 1 h or 12 h. LSL or KRAS^G12D MEFs were treated with sphingolipid-like compound 893 (5 μM) for 6 h prior to fixation.” left out
MEFs were washed twice with PBS and fixed with 4% paraformaldehyde for 10 min at RT. […] NADH/NADPH autofluorescence was detected with 740 nm excitation and 450±50 nm detectors using a Mai Tai two-photon laser. Fluorescence microscopy was performed on a Zeiss LSM 780 confocal using a 63× oil objective with a […] numerical aperture (NA) or using a Nikon TE2000-S inverted epifluorescence microscope with a 100× oil objective (1.3 NA) and a Photometrics CoolSNAP ES2 monochrome CCD camera. […]

## CC(=NNc1c(Cl)cc(Cl)cc1Cl)c1cc(Cl)ccc1O [M1]
[1]
  Protection from ceramide-induced mitochondrial fragmentation: neither compound alone or in combination prevented ceramide- or KRAS-induced mitochondrial fragmentation

## CCCC[C@@H](C)[C@@H](OC(=O)C[C@@H](CC(=O)O)C(=O)O)[C@H](C[C@@H](C)C[C@H](O)CCCC[C@@H](O)C[C@H](O)[C@H](C)N)OC(=O)C[C@@H](CC(=O)O)C(=O)O [fumonisin B1]
[2]
  Protection from palmitate-induced mitochondrial fragmentation (aspect ratio, branch length, roundness): prevented palmitate-induced morphological changes
[3]
  Palmitate-induced C16:0 ceramide production: Blocking ceramide production
A549 lung cancer cells
  Reversal of mitochondrial fragmentation / tubularity in A549 cells: did not increase mitochondrial tubularity in A549 cells

## COc1cc(-n2c(=S)[nH]c3ccccc3c2=O)c(Cl)cc1Cl [mdivi-1]
[1]
  Protection from ceramide-induced mitochondrial fragmentation: failed to prevent C16:0 ceramide-induced mitochondrial fragmentation; also recorded: neither compound alone or in combination prevented ceramide- or KRAS-induced mitochondrial fragmentation

## CCCCCCC(=O)CCCCCC/C=C/C[C@@H](O)[C@H](O)[C@@](N)(CO)C(=O)O [myriocin]
[2]
  Protection from palmitate-induced mitochondrial fragmentation (aspect ratio, branch length, roundness): prevented palmitate-induced morphological changes
[3]
  Palmitate-induced C16:0 ceramide production: Blocking ceramide production
A549 lung cancer cells
  Reversal of mitochondrial fragmentation / tubularity in A549 cells: did not increase mitochondrial tubularity in A549 cells

## NAV-2729
[2]
  Protection from palmitate-induced mitochondrial fragmentation (aspect ratio, branch length, roundness): partial protection from palmitate-induced mitochondrial fragmentation
